From PMC6851181 (Scientific Reports, 2019)
Where two headings read alike, the source gives them in different places.

Experiments:
[1] = Mouse IF pharmacokinetic study: plasma IF by HPLC, alone or after GFJ or naringin pre-administration; format: in vivo, ICR male mice
Method: For the study, 7 groups with 12 animals each were intragastrically (ig) administered with 300 mg/kg of IF. Then, we obtained 1 mL of blood by cardiac puncture at 2.5, 5, 7.5, 10, 20, 30, and 60 min post-administration.
Blood samples were immediately centrifuged at 3500 rpm. Aliquots of 250 µL were stored at −70 °C until the quantification of IF plasmatic concentrations was carried out.
Besides in our research, 7 groups with 12 animals each were ig administered with naringin (250 mg/kg) to evaluate its influence on the concentration/time profiles of IF, a chemical that was ig administered 60 min later (300 mg/kg). Seven other groups were ig administered GFJ (20.8 µL/g) and 60 min later ig treated with 300 mg/kg of IF. In both assays, we obtained blood samples at 2.5, 5, 7.5, 10, 20, 30, and 60 min post-administration. With the indicated design we examined the influence of GFJ or naringin on the concentration/time profiles of IF.
For the blood treatment, after thawing, we added 250 μL of the internal standard (CF) to each sample, after which the plasma was deproteinized with methanol 1:1.5 (plasma-methanol), and centrifuged at 3500 rpm for 10 min. Subsequently, we transferred 450 μL of the supernatant to an Eppendorf tube containing 550 μL of phosphate buffer 0.01 N, pH 4.0. The solution was activated with 1 mL of methanol plus 1 mL of phosphate buffer 0.01 N, pH 4.0, and loaded to a Bond Elut-CH cartridge under reduced pressure. The cartridge was washed with 1 mL of acetonitrile plus phosphate buffer 0.01 N, pH 4.0 (10–90%) and it was eluted with 500 μL of acetonitrile plus phosphate buffer 0.025 N, pH 4.0 (40–60%). A volume of 20 μL were injected in the stabilized HPLC system.
The pharmacokinetic parameters of IF and their interaction with naringin or GFJ were calculated by non-compartmental assessment of data using the computer program WinNonlin (V4.0, Pharsight, Mountain View, CA, USA). The maximum plasma concentrations (Cmax) and their time of occurrence (Tmax) were both obtained directly from the measured data. The area under the plasma concentration-time curve, from time zero to the time of the last measurable concentration (AUC0-t) was calculated with the linear trapezoidal method. AUC0-∞ was calculated AUC0-t + Ct/λz, where Ct is the last measurable concentration and λz the constant rate of terminal elimination. The corresponding half-life elimination (t1/2) was then calculated as 0.693/λz. The results corresponding to Cmax were statistically analyzed with the ANOVA and the Student-Newman-Keuls tests. With respect to AUC0-t, Tmax, and t1/2 the analysis was made with the Kruskal-Wallis test.

[2] = Stability of IF in the plasma of mouse under various storage conditions (HPLC); format: in vitro ADME; conditions: n = 3
Method: The short-term stability was determined after the exposure of the spiked samples to room temperature for 24 h. The long-term stability was evaluated after storage of the standard spiked plasma samples at −70 °C for 30 days. The freeze/thaw cycle stability was assessed after two complete freeze/thaw cycles (−70 to 25 °C) on consecutive days. The analytes were considered to be stable in plasma when 85–115% of the initial concentrations were found.
Chromatography conditions for the study were as follows: the mobile phase consisted of acetonitrile, potassium phosphate buffer 0.025 M at pH 4.0, and triethylamine (12:88:0.025, v/v) with a final pH of 6.2. The flow-rate was 1.2 mL/min. The analytical column was operated at ambient temperature. The HPLC system consisted of a Beckman System Gold, 128 Solvent Module with ultra-violet detection at 200 nm. We used a 3.5 μm Xterra RP-8 (4.6 × 150 mm) column. Data were collected by the HPLC system and transferred to a Dell Pentium computer.

[3] = IF only, 300 mg/kg ig, mouse plasma, 300 mg/kg
[4] = male, ICR, mouse, plasma, po, 300 mg/kg, GFJ 20.8 µL/g ig 1 h before IF 300 mg/kg ig, mouse plasma
[5] = male, ICR, mouse, plasma, po, 300 mg/kg, IF only, 300 mg/kg ig, mouse plasma
[6] = male, ICR, mouse, plasma, po, 300 mg/kg, naringin 250 mg/kg ig 1 h before IF 300 mg/kg ig, mouse plasma

In the case of `O=P1(NCCCl)OCCCN1CCCl` (stereo not drawn) [IF, ifosfamide], the Cmax ([1]; GFJ 20.8 µL/g ig 1 h before IF 300 mg/kg ig, mouse plasma) is reported as 71.35 ± 3.57^a♣ μg/mL, the “AUC0−∞” value [1, 3] is reported as 2110.36 ± 114.98 µg·min/mL and the Cmax [1, 3] is reported as 58080 ± 5010 ng/mL. It also gave a Tmax [1, 3] of 10.83 ± 1.28 min, a t1/2 [1, 3] of 23.55 ± 1.86 min and an AUC(0-inf) [1, 4] of 34200 ng·h/mL. For the same compound, the half-life [1, 4] was 16.5 ± 1.43 min, the Cmax ([1]; male, ICR, mouse, plasma, po, 300 mg/kg, GFJ 20.8 µL/g ig 1 h before IF 300 mg/kg ig, mouse plasma, read-out: Cmax) was 71300 ng/mL and the Tmax ([1]; male, ICR, mouse, plasma, po, 300 mg/kg, GFJ 20.8 µL/g ig 1 h before IF 300 mg/kg ig, mouse plasma, read-out: Tmax (converted)) was 8.7 min. For the same compound, the AUC(0-inf) [1, 5] was 35200 ng·h/mL, the half-life [1, 5] was 23.5 min and the Cmax ([1]; male, ICR, mouse, plasma, po, 300 mg/kg, IF only, 300 mg/kg ig, mouse plasma, read-out: Cmax) was 58100 ng/mL. It also gave a Tmax ([1]; male, ICR, mouse, plasma, po, 300 mg/kg, IF only, 300 mg/kg ig, mouse plasma, read-out: Tmax (converted)) of 10.8 min, an AUC(0-inf) [1, 6] of 37400 ng·h/mL and a half-life [1, 6] of 26.8 ± 3.77 min. For the same compound, the Cmax ([1]; male, ICR, mouse, plasma, po, 300 mg/kg, naringin 250 mg/kg ig 1 h before IF 300 mg/kg ig, mouse plasma, read-out: Cmax) was 64100 ± 4370 ng/mL, the Tmax ([1]; male, ICR, mouse, plasma, po, 300 mg/kg, naringin 250 mg/kg ig 1 h before IF 300 mg/kg ig, mouse plasma, read-out: Tmax (converted)) was 5 min and the Cmax ([1]; male, ICR, mouse, plasma, po, naringin 250 mg/kg ig 1 h before IF 300 mg/kg ig, mouse plasma, read-out: Cmax) was 64100 ng/mL. The Concentration found ([2]; freeze and thaw stability (−70 to 25 °C), two cycles, added 90 μg/mL) was 81.34 ± 4.99 µg/mL, the Concentration found ([2]; long-term (30 days, −70 °C), added 90 μg/mL) was 108.34 ± 1.64 µg/mL and the Concentration found ([2]; short-term (24 h, 25 °C), added 10 μg/mL) was 12.31 ± 0.68 µg/mL. For the same compound, the Concentration found ([2]; short-term (24 h, 25 °C), added 90 μg/mL) was 100.11 ± 14.27 µg/mL.

With `C[C@@H]1O[C@@H](O[C@H]2[C@H](Oc3cc(O)c4c(c3)O[C@H](c3ccc(O)cc3)CC4=O)O[C@H](CO)[C@@H](O)[C@@H]2O)[C@H](O)[C@H](O)[C@H]1O` [naringin, 4′,5,5-trihdroxy-flavanone-7-rhamnoglucoside] the “Change of half-life (t1/2) of IF with respect to IF alone” value ([1]; naringin 250 mg/kg ig 1 h before IF 300 mg/kg ig, mouse) was “no change” and the “Difference of AUC0−∞ of IF with respect to IF alone” value ([1]; naringin 250 mg/kg or GFJ 20.8 µL/g ig 1 h before IF 300 mg/kg ig, mouse) was “no statistical difference”.
